US6054598A, “Synthesis of 2-alkoxyestradiols” (Pharm-Eco Laboratories, Inc., priority 1998, dated 2000)
Like-named read-outs stand apart in the source and are kept apart here.

Tests used:
[1] = tested on: HCT-116 colon cancer cells; assay: NCI anticancer screen, cytotoxicity, HCT-116 colon cancer cells; type: cell-based; settings: Homo sapiens
Source text: (§1) The effects of the analogs on cancer cell growth was investigated in the National Cancer Institute (NCI) Developmental Therapeutics Program's in vitro panel of approximately 55 cell lines (Grever et al., Seminars in Oncology 19:622 (1992), Alley et al., Cancer Research 48:589 (1988) and Montes et al., J. National Cancer Institute 83:757 (1991)).

[2] = tested on: HOP-62 non-small-cell lung cancer cells; assay: NCI anticancer screen, cytotoxicity, HOP-62 non-small-cell lung cancer cells; type: cell-based; settings: Homo sapiens
Source text: as §1

[3] = tested on: human cancer cell lines (approximately 55); assay: NCI anticancer screen, in vitro panel of approximately 55 cell lines; type: cell-based; settings: for GI50: read-out: cytotoxicity MGM (mean graph midpoint for all human cancer cell lines tested)
Source text: as §1

[4] = tested on: SF-539 central nervous system (CNS) cancer cells; assay: NCI anticancer screen, cytotoxicity, SF-539 central nervous system (CNS) cancer cells; type: cell-based; settings: Homo sapiens
Source text: as §1

[5] = tested on: DU-145 prostate cancer cells; assay: NCI anticancer screen, cytotoxicity, DU-145 prostate cancer cells; type: cell-based; settings: Homo sapiens
Source text: as §1

[6] = tested on: MDA-MB-435 breast cancer cells; assay: NCI anticancer screen, cytotoxicity, MDA-MB-435 breast cancer cells; type: cell-based; settings: Homo sapiens
Source text: as §1

tubulin = assay: Inhibition of polymerization of purified tubulin; type: biochemical, bovine; settings: for IC50: extent of polymerization after 20 min incubation, 26° C., 350 nm, read-out: Inhibn of Tubulin Polymn IC50
Description: Electrophoretically homogeneous tubulin was purified from bovine brain as described previously (Hamel et al., Biochemistry 23:4173-4184 (1984)). Determination of IC50 values for the polymerization of purified tubulin was performed as described in D'Amato et al. Proc. Natl. Acad. Sci. U.S.A. 91:3964-3968 (1994). Tubulin was preincubated at 26° C. with varying compound concentrations, reaction mixtures were chilled on ice, GTP (required for the polymerization reaction) was added, and polymerization was followed at 26° C. by turbidimetry at 350 nm in Gilford recording spectrophotometers equipped with electronic temperature controllers. Four instruments were used, and two control reaction mixtures were present in each experiment. The extent of polymerization after a 20 min incubation was determined (the values for the two controls were usually within 5% of each other). IC50 values were determined graphically. […] Inhibition of colchicine binding to tubulin was performed as described previously (D. Amato et al., Proc. Natl. Acad. Sci. U.S.A. 91:3964-3968 (1994)). […] Incubation was for 30 min at 37° C.

[7] = tested on: SN12--C renal cancer cells; assay: NCI anticancer screen, cytotoxicity, SN12-C renal cancer cells; type: cell-based; settings: Homo sapiens, SN12C, read-out: cytotoxicity GI50, Renal SN12-C
Source text: as §1

[8] = tested on: OVCAR ovarian cancer cells; assay: NCI anticancer screen, cytotoxicity, OVCAR ovarian cancer cells; type: cell-based; settings: Homo sapiens, read-out: cytotoxicity GI50, Ovarian OVCAR
Source text: as §1

UACC-62 melanoma cells = assay: NCI anticancer screen, cytotoxicity, UACC-62 melanoma cells; type: cell-based; settings: Homo sapiens
Source text: as §1

solid tumors = settings: in mice; Fotsis et al., Nature 368:237 (1994); cited from earlier work
[9] = HCT-116, read-out: cytotoxicity GI50, Colon HCT-116
[10] = HOP-62, read-out: cytotoxicity GI50, Lung HOP-62
[11] = SF-539, read-out: cytotoxicity GI50, CNS SF-539
[12] = DU-145, read-out: cytotoxicity GI50, Prostate DU-145
[13] = MDA-MB-435, read-out: cytotoxicity GI50, Breast MDA-MB-435
[14] = UACC-62, read-out: cytotoxicity GI50, Melanoma UACC-62

SMILES	IC50 (tubulin) [µM]	GI50 [1, 9] [µM]	GI50 [2, 10] [µM]	GI50 ([3]; Homo sapiens) [µM]	GI50 [4, 11] [µM]	GI50 [5, 12] [µM]	GI50 [6, 13] [µM]	GI50 [7] [µM]	GI50 [8] [µM]	GI50 (UACC-62 melanoma cells; [14]) [µM]	other results
COc1cc2c(cc1O)CC[C@@H]1[C@@H]2CC[C@]2(C)[C@@H](O)CC[C@@H]12 [Compound 1, 2-methoxy estradiol, reference compound]	2.9 ± 0.6	–	–	–	–	–	–	–	–	–	GI50 ([1]; HCT-116, concentration corresponding to 50% growth inhibition, read-out: cytotoxicity GI50, Colon HCT-116): 0.47 µM; GI50 ([2]; HOP-62, concentration corresponding to 50% growth inhibition, read-out: cytotoxicity GI50, Lung HOP-62): 0.7 µM; GI50 ([3]; approximately 55 human cancer cell lines, GI50): 1.3 µM; GI50 ([4]; SF-539, concentration corresponding to 50% growth inhibition, read-out: cytotoxicity GI50, CNS SF-539): 0.32 µM; GI50 ([5]; DU-145, concentration corresponding to 50% growth inhibition, read-out: cytotoxicity GI50, Prostate DU-145): 1.8 µM; GI50 ([6]; MDA-MB-435, concentration corresponding to 50% growth inhibition, read-out: cytotoxicity GI50, Breast MDA-MB-435): 0.08 µM; GI50 ([7]; SN12-C, concentration corresponding to 50% growth inhibition): 0.95 µM; GI50 ([8]; OVCAR, concentration corresponding to 50% growth inhibition): 0.21 µM; GI50 (UACC-62 melanoma cells; UACC-62, concentration corresponding to 50% growth inhibition, read-out: cytotoxicity GI50, Melanoma UACC-62): 0.36 µM; apparent signs of toxicity at tumor growth inhibiting doses (solid tumors): no apparent signs of toxicity; inhibition of growth of solid tumors (solid tumors): inhibits their growth; inhibition of neovascularization of solid tumors (solid tumors): potent inhibitor of neovascularization of solid tumors
C[C@]12CC[C@@H]3c4cc(OCC(F)(F)F)c(O)cc4CC[C@H]3[C@@H]1CC[C@@H]2O [Compound 9, 2-(2',2',2'-Trifluoroethoxy)estra-1,3,5(10)-Trien-3,17β-Diol]	1.7	3.22	11.6	2.63	1.38	7.05	0.28	4.46	0.46	2.32	–
CCOc1cc2c(cc1O)CC[C@@H]1[C@@H]2CC[C@]2(C)[C@@H](O)CC[C@@H]12 [Compound 10, 2-Ethoxyestra-1,3,5(10)-trien03,17β-diol]	0.91 ± 0.5	0.026	0.018	0.076	0.014	0.065	< 0.01	0.039	0.016	0.016	activity against all the cell lines listed in Table 1 relative to 2-methoxy estradiol (1) ([3]; all the cell lines listed in Table 1, compared with 2-methoxy estradiol (1)): more active; activity on tubulin polymerization relative to 2-methoxy estradiol (1) (tubulin; compared with 2-methoxy estradiol (1)): over three times more active
